Source: patent US4226610A, “Herbicidal compounds, preparation thereof and herbicides containing the same” (Meiji Selka Kaisha, Ltd., priority 1978, dated 1980)
Where a name gives a salt, the structure may show the parent alone.

Key:
lace shrub = test: Experiment 3 foliar application to naturally growing shrubs; type: in vivo, Stephanandra incisa Zabel; settings: after 3 months; also: key: -: no reproduction, namely complete suppression of reproduction; ±: remarkable suppression of reproduction; +: considerable suppression of reproduction; ++: medium supprestion of reproduction; +++: no suppression of reproduction
How it was run: (§1)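 Sprays contained 0.1% octylphenyl polyoxyethanol and compound diluted to prescribed concentrations. They were applied to the leaves of wild shrubs at a rate of 150 liter per 10 are. Damage was rated 0–5 after one and three months, and regrowth − to +++ after three months.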

warunasubi = test: Experiment 1 foliar application to naturally growing weeds; type: in vivo, Solanum carolinensis L.; settings: 4 months, monosodium salt; also: key: -: no reproduction, namely complete suppression of reproduction; ±: remarkable suppression of reproduction; +: considerable suppression of reproduction; ++: medium supprestion of reproduction; +++: no suppression of reproduction
How it was run: (§2)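 Naturally growing weeds receive a foliar spray of compound at prescribed concentrations, 150 liter per 10 are, containing 0.1% octylphenyl polyoxyethanol. Kill is rated 0 (no effect) to 5 (death) after 21 days. Regrowth is rated (-) to (+++) after 4 months, or 2 months for cockspar grass.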

water hyacinth = test: Experiment 5 foliar application to water hyacinths; type: in vivo, Eichhornia crassipes Solms; settings: 3 months, listed as DL-AMPB monosodium salt, monosodium salt; also: key: -: no reproduction, namely complete suppression of reproduction; ±: remarkable suppression of reproduction; +: considerable suppression of reproduction; ++: medium supprestion of reproduction; +++: no suppression of reproduction
How it was run: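 Two plants floated in fertilized water per vessel, sprayed foliarly with 0.1 or 0.2% aqueous compound solutions at 100 liter per 10 are plus 0.1% octylphenyl polyoxyethanol. Killing index (0 no effect to 5 death) scored at 21 days and 3 months; reproduction inhibition scored (-) to (+++) at 3 months.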

chigaya = test: Experiment 1 foliar application to naturally growing weeds; type: in vivo, Imperata cylindrica Beauv.; settings: 4 months; also: key: -: no reproduction, namely complete suppression of reproduction; ±: remarkable suppression of reproduction; +: considerable suppression of reproduction; ++: medium supprestion of reproduction; +++: no suppression of reproduction
How it was run: as §2

hedge bindweed = test: as above; type: in vivo, Calystegis hederacea Wall.; settings: 4 months, monosodium salt
How it was run: (§3)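 Read-outs were a 0–5 killing index at 21 days and a reproduction score from (-), no reproduction, to (+++), no suppression. Reproduction was read at 2 months for cockspar grass and 4 months for the other species, after foliar spraying at 150 liter per 10 are with 0.1% surfactant.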

torch azalea = test: Experiment 3 foliar application to naturally growing shrubs; type: in vivo, Rhododendoron Kaempferi Planch.; settings: after 3 months
How it was run: as §1

cockspar grass = test: Experiment 1 foliar application to naturally growing weeds; type: in vivo, Echinochloa Crusgalli P. Beauv.; settings: monosodium salt; for Reproduction-inhibiting effect: 2 months
How it was run: as §2

manna grass = test: as above; type: in vivo, Digitaria adsceudes Henr.; settings: monosodium salt; for Reproduction-inhibiting effect: 2 months
How it was run: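 Dilute compounds to prescribed concentrations; add 0.1% octylphenyl polyoxyethanol; spray foliage of in-situ weeds at 150 liter per 10 are. Score killing 0–5 on day 21. Score reproduction (-) to (+++) at month 2 (cockspar grass) or month 4 (chigaya, azumanezasa, warunasubi).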

white clover = test: as above; type: in vivo, Trifolium repens L.; settings: monosodium salt; for Reproduction-inhibiting effect: 4 months
How it was run: as §3

yamazakura = test: Experiment 3 foliar application to naturally growing shrubs; type: in vivo, Prunus donarium Sieb. var. spontanae Makino; settings: after 3 months
How it was run: as §1

azumanezasa = test: Experiment 1 foliar application to naturally growing weeds; type: in vivo, Pleioblastus Chino Makino; settings: 4 months
How it was run: as §2

kumaichigo = test: Experiment 2 foliar application in Japanese cypress afforested land; type: in vivo, Rubus crataegifolius Bunge; settings: 0.063%; after 30 days; monosodium salt
How it was run: (§4)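 Field foliar spray on shrubs in Japanese cypress afforested land at 150 liter per 10 are, with compounds at prescribed concentrations. Killing index scored from 0 (no effect) to 5 (death) at 30 days and 3 months. Plant heights ranged from about 50 to 100 cm.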

kiichigo = test: Experiment 3 foliar application to naturally growing shrubs; type: in vivo, Rubus palmatsu Thunb. forma coptophyllus Makino; settings: after 3 months
How it was run: as §1

eulalia = test: Experiment 2 foliar application in Japanese cypress afforested land; type: in vivo, Miscanthus sinensis Andress.; parameters: key: 0 = no effect, 5 = death; settings: 0.125%; after 30 days; monosodium salt
How it was run: as §4

Japanese prickly ash = test: Experiment 3 foliar application to naturally growing shrubs; type: in vivo, Xanthoxylum piperitum DC.; settings: after 3 months
How it was run: as §1

purple nutsedge = test: Experiment 1 foliar application to naturally growing weeds; type: in vivo, Cyperus rotundus L.; settings: 4 months, monosodium salt
How it was run: as §3

chestnut = test: Experiment 2 foliar application in Japanese cypress afforested land; type: in vivo, Castanea crenata Sieb et Zucc.; settings: 0.063%; after 30 days; monosodium salt
Method: The detail of the assessment made in the following Experiments of the invention was as follows:
The compounds of the invention and other compounds listed in Table 4. were diluted to prescribed concentrations and sprayed to shrubs by foliar application in a Japanese cypress afforested land in an amount of 150 liter per 10 are.
After 30 days and 3 months, the killing index (0, no effect; 5, death) was determined.
The heights of plants were 50-70 cm. for Japanese cypress, about 50 cm. for chestnut, 50-90 cm. for miyakozasa, about 100 cm. for eulalia and 70-100 cm. for kumaichigo, respectively.

Japanese bush cranberry = test: Experiment 3 foliar application to naturally growing shrubs; type: in vivo, Viburnum dilatatum Thunb.; settings: after 3 months
How it was run: as §1

yabugarashi = test: Experiment 1 foliar application to naturally growing weeds; type: in vivo, Cayratia japonica Houtt.; settings: 4 months, monosodium salt
How it was run: as §3

oak = test: Experiment 3 foliar application to naturally growing shrubs; type: in vivo, Quercus serrata Thunb; settings: after 3 months
How it was run: as §1

Q: `CP(=O)(O)CCC(N)C(=O)O` (racemic) [DL-2-Amino-4-methylphosphinobutanoic acid monosodium salt] was tested. Which Reproduction-inhibiting (lace shrub; 0.05%, monosodium salt) did it give?
A: +++

Q: What about the Reproduction-inhibiting (lace shrub; 0.1%, monosodium salt) of the same compound?
A: ++

Q: What about the Reproduction-inhibiting (lace shrub; 0.2%) of the same compound?
A: -

Q: And the Reproduction-inhibiting effect (warunasubi; 0.05%)?
A: +++

Q: What about the Reproduction-inhibiting effect (warunasubi; 0.1%) of the same compound?
A: +++

Q: And the Reproduction-inhibiting effect (warunasubi; 0.2%)?
A: +

Q: And the Reproduction-inhibiting effect (water hyacinth; 0.1%)?
A: ++

Q: What about the Reproduction-inhibiting effect (water hyacinth; 0.2%) of the same compound?
A: ±

Q: What about the Reproduction-inhibiting effect (chigaya; 0.05%, monosodium salt) of the same compound?
A: ++

Q: And the Reproduction-inhibiting effect (chigaya; 0.1%, monosodium salt)?
A: ++

Q: What about the Reproduction-inhibiting effect (chigaya; 0.2%) of the same compound?
A: -

Q: And the Reproduction-inhibiting effect (hedge bindweed; 0.05%)?
A: +++

Q: What about the Reproduction-inhibiting effect (hedge bindweed; 0.1%) of the same compound?
A: +++

Q: What about the Reproduction-inhibiting effect (hedge bindweed; 0.2%) of the same compound?
A: +++

Q: And the Reproduction-inhibiting (torch azalea; 0.05%, monosodium salt)?
A: +++

Q: And the Reproduction-inhibiting (torch azalea; 0.1%, monosodium salt)?
A: ++

Q: What about the Reproduction-inhibiting (torch azalea; 0.2%) of the same compound?
A: -

Q: And the Reproduction-inhibiting effect (cockspar grass; 0.05%)?
A: + ++

Q: What about the Reproduction-inhibiting effect (cockspar grass; 0.1%) of the same compound?
A: ++

Q: And the Reproduction-inhibiting effect (cockspar grass; 0.2%)?
A: ±

Q: What about the “Killing index of Upperground parts” value (cockspar grass; 0.2%, 21 days) of the same compound?
A: 4.5

Q: And the Reproduction-inhibiting effect (manna grass; 0.05%)?
A: +++

Q: And the Reproduction-inhibiting effect (manna grass; 0.1%)?
A: ++

Q: And the Reproduction-inhibiting effect (manna grass; 0.2%)?
A: ±

Q: And the “Killing index of Upperground parts” value (manna grass; 0.2%, 21 days)?
A: 4.5

Q: What about the Reproduction-inhibiting effect (white clover; 0.05%) of the same compound?
A: +++

Q: And the Reproduction-inhibiting effect (white clover; 0.1%)?
A: +++

Q: And the Reproduction-inhibiting effect (white clover; 0.2%)?
A: +

Q: And the “Killing index of Upperground parts” value (white clover; 0.2%, 21 days)?
A: 4.5

Q: And the Reproduction-inhibiting (yamazakura; 0.05%, monosodium salt)?
A: +++

Q: And the Reproduction-inhibiting (yamazakura; 0.1%, monosodium salt)?
A: ++

Q: And the Reproduction-inhibiting (yamazakura; 0.2%)?
A: -

Q: What about the Reproduction-inhibiting effect (azumanezasa; 0.05%, monosodium salt) of the same compound?
A: +++

Q: What about the Reproduction-inhibiting effect (azumanezasa; 0.1%, monosodium salt) of the same compound?
A: +

Q: And the Reproduction-inhibiting effect (azumanezasa; 0.2%)?
A: -

Q: What about the Killing index (kumaichigo) of the same compound?
A: 1.5

Q: And the Reproduction-inhibiting (kiichigo; 0.05%, monosodium salt)?
A: +++

Q: What about the Reproduction-inhibiting (kiichigo; 0.1%, monosodium salt) of the same compound?
A: ++

Q: And the Reproduction-inhibiting (kiichigo; 0.2%)?
A: -

Q: And the Killing index (eulalia)?
A: 2.5

Q: What about the Reproduction-inhibiting (Japanese prickly ash; 0.05%, monosodium salt) of the same compound?
A: +++

Q: And the Reproduction-inhibiting (Japanese prickly ash; 0.1%, monosodium salt)?
A: ++

Q: What about the Reproduction-inhibiting (Japanese prickly ash; 0.2%) of the same compound?
A: -

Q: What about the Reproduction-inhibiting effect (purple nutsedge; 0.05%) of the same compound?
A: +++

Q: What about the Reproduction-inhibiting effect (purple nutsedge; 0.1%) of the same compound?
A: +++

Q: And the Reproduction-inhibiting effect (purple nutsedge; 0.2%)?
A: +

Q: And the Killing index (chestnut)?
A: 0.5

Q: What about the Reproduction-inhibiting (Japanese bush cranberry; 0.05%) of the same compound?
A: +++

Q: What about the Reproduction-inhibiting (Japanese bush cranberry; 0.1%) of the same compound?
A: ++

Q: What about the Reproduction-inhibiting (Japanese bush cranberry; 0.2%, monosodium salt) of the same compound?
A: + +

Q: And the Reproduction-inhibiting effect (yabugarashi; 0.05%)?
A: +++

Q: And the Reproduction-inhibiting effect (yabugarashi; 0.1%)?
A: +++

Q: And the Reproduction-inhibiting effect (yabugarashi; 0.2%)?
A: ++

Q: What about the Reproduction-inhibiting (oak; 0.05%, monosodium salt) of the same compound?
A: +++

Q: And the Reproduction-inhibiting (oak; 0.1%, monosodium salt)?
A: ++

Q: And the Reproduction-inhibiting (oak; 0.2%)?
A: -
